Results reported in PMC1781467, “In silico panning for a non-competitive peptide inhibitor” (BMC Bioinformatics, 2007).
Ends that are not written are not given here. Peptide text beside a SMILES is read from it.

Columns and labels:
PQQGDH [1] = molecular target: T1, PQQGDH (Acinetobacter calcoaceticus, UniProt P13650); assay: PQQGDH activity for glucose in the presence of synthetic peptides (PMS/DCIP assay); assay type: biochemical; details: derived from the Dixon plot; 0.57 nM apo-PQQGDH, glucose substrate, pH 7.0; read-out: Ki (inhibition constant)
Experimental: The three peptides with the lowest docking energies, GEKD, GERD, and SERG, and the control peptide DDDD were synthesized by Qiagen (Chatsworth, CA, USA). […] In general, purified PQQGDH is a mixture of an apo- and holo-type enzyme. Therefore, we dialyzed the enzyme against 100 mM EDTA and 10 mM MOPS-NaOH buffer for 2 days, to remove the Ca^2+ ions. Each synthesized peptide was prepared at concentrations of 0.2, 1, 2, 10, and 20 μM. The prepared peptides and 0.57 nM of apo-PQQGDH were incubated in 10 mM MOPS-NaOH buffer (pH 7.0) for 10 min at room temperature. PQQGDH activity was measured using 0.6 mM PMS and 0.06 mM DCIP. Decreased in the absorbance of DCIP at 600 nm at various concentrations of glucose were monitored, and the kinetic parameters of PQQGDH were as described previously. The kinetic parameters and Ki values were calculated using the KaleidaGraph software.

PQQGDH [2] = molecular target: T1, PQQGDH; design: method as in PMID 12882541; details: peptide from phage display peptide library; cited from earlier work

T1 sequence (P13650 25-478): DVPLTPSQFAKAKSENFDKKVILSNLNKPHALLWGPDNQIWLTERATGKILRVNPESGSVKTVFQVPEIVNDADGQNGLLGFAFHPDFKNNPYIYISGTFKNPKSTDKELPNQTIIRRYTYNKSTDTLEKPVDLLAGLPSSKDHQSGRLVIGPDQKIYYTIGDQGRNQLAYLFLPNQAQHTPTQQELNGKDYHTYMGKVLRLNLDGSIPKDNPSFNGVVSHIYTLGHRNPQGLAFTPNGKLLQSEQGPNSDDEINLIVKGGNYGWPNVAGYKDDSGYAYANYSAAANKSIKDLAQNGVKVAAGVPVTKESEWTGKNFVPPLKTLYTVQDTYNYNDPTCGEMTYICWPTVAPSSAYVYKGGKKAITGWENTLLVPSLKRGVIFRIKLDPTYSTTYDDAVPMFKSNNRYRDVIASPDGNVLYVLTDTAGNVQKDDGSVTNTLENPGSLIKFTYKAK

Compound	Ki (PQQGDH [1])	Effect on substrate specificity of PQQGDH (PQQGDH [2])
N[C@@H](CC(=O)O)C(=O)N[C@@H](CC(=O)O)C(=O)N[C@@H](CC(=O)O)C(=O)N[C@@H](CC(=O)O)C(=O)O [DDDD] (H-DDDD-OH)	> 100 µM	
NCCCC[C@H](NC(=O)[C@H](CCC(=O)O)NC(=O)CN)C(=O)N[C@@H](CC(=O)O)C(=O)O [GEKD] (H-GEKD-OH)	> 20 µM	
N=C(N)NCCC[C@H](NC(=O)[C@H](CCC(=O)O)NC(=O)CN)C(=O)N[C@@H](CC(=O)O)C(=O)O [GERD] (H-GERD-OH)	> 20 µM	
N=C(N)NCCC[C@H](NC(=O)[C@H](CCC(=O)O)NC(=O)[C@@H](N)CO)C(=O)NCC(=O)O [SERG] (H-SERG-OH)	20 µM	
TTATEYS [seven-amino-acid peptide previously identified from a phage display peptide library]		narrowed the substrate specificity of PQQGDH without significant loss of enzyme activity
